Assay results: US6197761A, “17β-2-oxo-tetrahydrofuranyl)-carbothioic acid ester, -carboxylic acid ester and -carboxylic acid amide androstane derivatives” (Glaxo Wellcome Inc., priority 1995, dated 2001)

Legend:
rat ear oedema = assay: Anti-inflammatory activity: inhibition of rat ear oedema (croton oil); format: in vivo; settings: topical to ear with 5% croton oil in acetone, male rats, 6 hours
Procedure: (i) Anti-inflammatory Activity--Inhibition of rat ear oedema
The test compounds are dissolved in acetone and 40 ul containing 5% croton oil is applied to the inner surface of each of the ears of 60-80 g male rats. Animals are killed 6 hours later and the ears are removed. Standard size (0.5 cm diameter) discs are punched out and the discs weighed. Mean weight of the ear discs is calculated and from this percentage inhibition of ear inflammation in relation to croton oil alone treated ears are calculated.

[1] = molecular target: T1, Human Glucocorticoid Receptor (Homo sapiens, UniProt P04150); assay: functional in vitro glucocorticoid assay, sPAP reporter under MMTV LTR in transfected Hela cells; format: cell-based; settings: sPAP transcription in transfected Hela cells, 72 hours incubation
T1 construct: endogenous in cells; host or cells: HeLa cells (stably transfected with the sPAP reporter under the MMTV LTR)
T1 sequence (P04150 1-777): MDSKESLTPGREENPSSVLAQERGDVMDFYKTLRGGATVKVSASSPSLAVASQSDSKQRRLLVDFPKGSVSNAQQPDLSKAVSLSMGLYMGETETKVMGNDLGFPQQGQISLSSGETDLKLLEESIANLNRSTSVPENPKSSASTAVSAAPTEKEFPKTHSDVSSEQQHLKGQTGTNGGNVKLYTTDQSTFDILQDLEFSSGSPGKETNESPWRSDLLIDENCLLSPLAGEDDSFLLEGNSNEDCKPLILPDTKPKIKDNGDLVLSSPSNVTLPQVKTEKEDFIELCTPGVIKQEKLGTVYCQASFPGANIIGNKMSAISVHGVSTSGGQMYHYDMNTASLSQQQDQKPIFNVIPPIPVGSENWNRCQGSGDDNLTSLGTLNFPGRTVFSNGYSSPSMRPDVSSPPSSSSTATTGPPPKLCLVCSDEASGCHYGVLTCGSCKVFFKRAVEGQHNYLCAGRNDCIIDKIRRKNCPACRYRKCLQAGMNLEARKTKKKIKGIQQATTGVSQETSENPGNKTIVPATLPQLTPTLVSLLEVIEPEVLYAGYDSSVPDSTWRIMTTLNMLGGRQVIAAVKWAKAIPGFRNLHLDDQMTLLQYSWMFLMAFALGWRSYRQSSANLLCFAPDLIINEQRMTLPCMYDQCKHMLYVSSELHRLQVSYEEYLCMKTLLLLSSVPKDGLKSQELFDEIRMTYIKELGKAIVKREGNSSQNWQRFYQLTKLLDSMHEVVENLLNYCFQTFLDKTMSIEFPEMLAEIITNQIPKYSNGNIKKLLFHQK
Source text: The functional assay used was a modification of the method described by T. S Berger et al, of J. of Steroid Biochem. Molec. Biol. 1992, 41 (3-8), 733-738, "Interaction of Glucocorticoid analogues with the Human Glucocorticoid Receptor".
Thus, Hela cells were stably transfected with a detectable reporter gene (secreted placental alkaline phosphatase, sPAP) under the control of a glucocorticoid response promoter (the LTR of the mouse mammary tumour virus, MMTV).
Various concentrations of standard (dexamethasone) or compounds of the invention were incubated with transfected Hela cells for 72 hours. At the end of the incubation, substrate ([…]) for sPAP was added and the product measured by a spectrophotometric method. Increased absorbance reflected increased sPAP transcription and concentration-response lines were constructed such that EC50 -values could be estimated.

[2] = Hydrolysis in Blood (stability in human plasma); format: in vitro ADME
[3] = system: Adrenocorticotrophic hormone (ACTH); assay: Systemic effects: ACTH suppression in adrenalectomised rats; format: in vivo, rat; settings: single intra-tracheal, adrenalectomised male CD rats, plasma ACTH at 4 h
Procedure: (ii) Systemic effects--ACTH suppression in adrenalectomised rats
Male CD rats (90-120 g) were adrenalectomised under Isoflurane anaesthesia and drinking water was supplemented with 0.9% saline. Four days later the animals receive a single intra-tracheal dose (under Isoflurane anaesthesia) of compound suspended in saline (containing 0.2% Tween-80, 0.2 ml) at 10 am. After 4 h animals are sacrificed by administration of Euthetal and blood samples are taken by intra-cardiac puncture and collected into heparinised tubes. The samples are centrifuged (20 minutes at 1000 RPM at 4 deg C.), the plasma is collected and assayed by Radioimmunoassay (RIA) for Adrenocorticotrophic hormone (ACTH) using a DPC double antibody RIA kit. Intact and vehicle control groups were included in each experiment in order to account for diurnal variation in ACTH and effects of vehicle. Results are calculated with respect to the RIA standard curve and expressed as ACTH pg/ml plasma, allowing percentage reduction in ACTH to be calculated.

With `CC1(C)O[C@@H]2C[C@H]3[C@@H]4C[C@H](F)C5=CC(=O)C=C[C@]5(C)[C@@]4(F)[C@@H](O)C[C@]3(C)[C@]2(C(=O)N[C@@H]2CCOC2=O)O1` (single isomer, unassigned) [Example 16 Isomer B, 6α,9α-Difluoro-11β-hydroxy-16α,17α-isopropylidenedioxy-3-oxo-androsta-1,4-diene-17β-carboxylic acid N-(2-oxo-tetrahydro-furan-3-yl) amide] the “% Inhibition (ear inflammation)” value (rat ear oedema; dose 10 μg) was 42%.

With `CCC[C@@H]1O[C@@H]2C[C@H]3[C@@H]4C[C@H](F)C5=CC(=O)CC[C@]5(C)[C@@]4(F)[C@@H](O)C[C@]3(C)[C@]2(C(=O)SC2CCOC2=O)O1` (single isomer, unassigned) [Example 19 Isomer A, 16α,17α-(R-Butylidenedioxy)-6α,9α-difluoro-11β-hydroxy-3-oxo-androst-4-ene-17β-carbothioic acid S-(2-oxo-tetrahydro-furan-3-yl) ester] the “% Inhibition (ear inflammation)” value (rat ear oedema; dose 100 μg) was 54%.

With `CCC[C@@H]1O[C@@H]2C[C@H]3[C@@H]4C[C@H](F)C5=CC(=O)CC[C@]5(C)[C@@]4(F)[C@@H](O)C[C@]3(C)[C@]2(C(=O)SC2CCOC2=O)O1` (single isomer, unassigned) [Example 19 Isomer B, 16α,17α-(R-Butylidenedioxy)-6α,9α-difluoro-11β-hydroxy-3-oxo-androst-4-ene-17β-carbothioic acid S-(2-oxo-tetrahydro-furan-3-yl) ester] the “% Inhibition (ear inflammation)” value (rat ear oedema; dose 100 μg) was 43%.

`CCC[C@@H]1O[C@@H]2C[C@H]3[C@@H]4C[C@H](F)C5=CC(=O)CC[C@]5(C)[C@@]4(F)[C@@H](O)C[C@]3(C)[C@]2(C(=O)NC2CCOC2=O)O1` (single isomer, unassigned) [Example 22, 16α,17α-(R-Butylidenedioxy)-6α,9α-difluoro-11β-hydroxy-3-oxo-androst-4-ene-17β-carboxylic acid N-(2-oxo-tetrahydro-furan-3-yl) amide] showed an EC50 [1] of less than 400 nM and a half-life [2] of less than 3 h.

For `CCC(=O)O[C@]1(C(=O)S[C@H]2CCOC2=O)[C@H](C)C[C@H]2[C@@H]3C[C@H](F)C4=CC(=O)C=C[C@]4(C)[C@@]3(F)[C@@H](O)C[C@@]21C` [Example 2, 6α,9α-Difluoro-11β-hydroxy-16α-methyl-3-oxo-17α-propionyloxy-androsta-1,4-diene-17β-carbothioic acid S-(2-oxo-tetrahydro-furan-3S-yl)-ester], the “% Inhibition (ear inflammation)” value (rat ear oedema; dose 100 μg) was 42% and the “% Reduction in ACTH” value ([3]; dose 500 μg) was 0%.

With `CC1(C)O[C@@H]2C[C@H]3[C@@H]4C[C@H](F)C5=CC(=O)C=C[C@]5(C)[C@@]4(F)[C@@H](O)C[C@]3(C)[C@]2(C(=O)N[C@H]2CCOC2=O)O1` [Example 15, 6α,9α-Difluoro-11β-hydroxy-16α,17α-isopropylidenedioxy-3-oxo-androsta-1,4-diene-17β-carboxylic acid N-(2-oxo-tetrahydro-furan-3S-yl) amide] the EC50 [1] was less than 400 nM and the half-life [2] was less than 3 h.

In the case of `CC1(C)O[C@@H]2C[C@H]3[C@@H]4C[C@H](F)C5=CC(=O)C=C[C@]5(C)[C@@]4(F)[C@@H](O)C[C@]3(C)[C@]2(C(=O)NC2CCOC2=O)O1` (stereo partly drawn) [Example 16, 6α,9α-Difluoro-11β-hydroxy-16α,17α-isopropylidenedioxy-3-oxo-androsta-1,4-diene-17β-carboxylic acid N-(2-oxo-tetrahydro-furan-3-yl) amide], the EC50 [1] is reported as less than 400 nM and the half-life [2] is reported as less than 3 h.

With `CC1(C)O[C@@H]2C[C@H]3[C@@H]4C[C@H](F)C5=CC(=O)C=C[C@]5(C)[C@@]4(F)[C@@H](O)C[C@]3(C)[C@]2(C(=O)N[C@@H]2COC(=O)C2)O1` [Example 23, 6α,9α-Difluoro-11β-hydroxy-16α,17α-isopropylidenedioxy-3-oxo-androsta-1,4-diene-17β-carboxylic acid N-(2-oxo-tetrahydro-furan-4S-yl) amide] the EC50 [1] was less than 400 nM and the half-life [2] was less than 3 h.

For `CC1(C)O[C@@H]2C[C@H]3[C@@H]4C[C@H](F)C5=CC(=O)C=C[C@]5(C)[C@@]4(F)[C@@H](O)C[C@]3(C)[C@]2(C(=O)CO)O1` [Fluocinolone acetonide], the “% Reduction in ACTH” value ([3]; dose 1 μg) was 49% and the “% Reduction in ACTH” value ([3]; dose 5 μg) was 84%.
